Data: ChEMBL document CHEMBL4002565, “Synthesis, biological evaluation and in silico molecular modeling of pyrrolyl benzohydrazide derivatives as enoyl ACP reductase inhibitors” (Eur J Med Chem, 2017)
pIC50: −log10 of the molar value. In brackets after ≈: the same amount, converted by molar mass.

Key:
[1] = tested on: Mycobacterium tuberculosis; experiment: Antitubercular activity against Mycobacterium tuberculosis H37Rv after 5 days by microplate Alamar blue assay; assay type: functional; settings: 120 h
[2] = tested on: Staphylococcus aureus; experiment: Antibacterial activity against Staphylococcus aureus after 18 hrs by broth microdilution method; assay type: functional
[3] = tested on: Mycobacterium tuberculosis; experiment: Inhibition of Mycobacterium tuberculosis His6-tagged wild type InhA expressed in Escherichia coli BL21 at 50 uM using DDCoA as substrate relative to control
[4] = tested on: A549; experiment: Cytotoxicity against human A549 cells by MTT assay; assay type: cell-based
[5] = tested on: Escherichia coli; experiment: Antibacterial activity against Escherichia coli after 18 hrs by broth microdilution method; assay type: functional

SMILES | MIC [1] [µg/mL] | MIC [2] [µg/mL] | inhibition [3] [%] | pIC50 [4] | MIC [5] [µg/mL]
COc1ccc(C(=O)NNC(=O)c2ccc(-n3cccc3)cc2)cc1 | 12.5 (≈ 37.3 µM) | 25 (≈ 74.5 µM) | 13 | 3.61 | 25 (≈ 74.5 µM)
O=C(NNC(=O)c1cccc(Cl)c1)c1ccc(-n2cccc2)cc1 | 6.25 (≈ 18.4 µM) | 12.5 (≈ 36.8 µM) | – | – | 3.12 (≈ 9.2 µM)
CCn1cc(C(=O)O)c(=O)c2cc(F)c(N3CCNCC3)cc21 [NORFLOXACIN] | – | 2.02 (≈ 6.33 µM) | – | – | 4 (≈ 12.5 µM)
Nc1ccccc1C(=O)NNC(=O)c1ccc(-n2cccc2)cc1 | 12.5 (≈ 39 µM) | 25 (≈ 78 µM) | – | – | 12.5 (≈ 39 µM)
Oc1cc(Cl)ccc1Oc1ccc(Cl)cc1Cl | – | – | > 99 | – | –
Cc1ccc(C(=O)NNC(=O)c2ccc(-n3cccc3)cc2)cc1 | 12.5 (≈ 39.1 µM) | 25 (≈ 78.3 µM) | – | – | 6.25 (≈ 19.6 µM)
Cc1ccccc1C(=O)NNC(=O)c1ccc(-n2cccc2)cc1 | 12.5 (≈ 39.1 µM) | 25 (≈ 78.3 µM) | 12 | 3.71 | 12.5 (≈ 39.1 µM)
CO[C@H]1/C=C/O[C@@]2(C)Oc3c(C)c(O)c4c(O)c(c(/C=N/N5CCN(C)CC5)c(O)c4c3C2=O)NC(=O)/C(C)=C\C=C\[C@H](C)[C@H](O)[C@@H](C)[C@@H](O)[C@@H](C)[C@H](OC(C)=O)[C@@H]1C [RIFAMPIN] | 0.4 (≈ 0.486 µM) | – | – | – | –
O=C(NNC(=O)c1ccc([N+](=O)[O-])cc1)c1ccc(-n2cccc2)cc1 | 12.5 (≈ 35.7 µM) | 25 (≈ 71.4 µM) | 22 | 4.02 | 12.5 (≈ 35.7 µM)
Nc1ccc(C(=O)NNC(=O)c2ccc(-n3cccc3)cc2)cc1 | 12.5 (≈ 39 µM) | 25 (≈ 78 µM) | – | – | 12.5 (≈ 39 µM)
Cc1cccc(C(=O)NNC(=O)c2ccc(-n3cccc3)cc2)c1 | 12.5 (≈ 39.1 µM) | 50 (≈ 157 µM) | 29 | 3.71 | 12.5 (≈ 39.1 µM)
CC[C@@H](CO)NCCN[C@@H](CC)CO [ETHAMBUTOL] | 0.5 (≈ 2.45 µM) | – | – | – | –
Nc1cccc(C(=O)NNC(=O)c2ccc(-n3cccc3)cc2)c1 | 25 (≈ 78 µM) | 50 (≈ 156 µM) | – | – | 25 (≈ 78 µM)
CC(=O)c1cccc(C(=O)NNC(=O)c2ccc(-n3cccc3)cc2)c1 | 12.5 (≈ 36 µM) | 25 (≈ 72 µM) | 31 | 4.10 | 12.5 (≈ 36 µM)
O=C(NNC(=O)c1ccc(-n2cccc2)cc1)c1ccccc1 | 50 (≈ 164 µM) | 50 (≈ 164 µM) | 13 | 3.61 | 25 (≈ 81.9 µM)
O=C(NNC(=O)c1ccc(Cl)cc1Cl)c1ccc(-n2cccc2)cc1 | 3.12 (≈ 8.35 µM) | 12.5 (≈ 33.4 µM) | – | – | 3.12 (≈ 8.35 µM)
O=C(O)c1cn(C2CC2)c2cc(N3CCNCC3)c(F)cc2c1=O [CIPROFLOXACIN] | – | 0.15 (≈ 0.453 µM) | – | – | –
O=C(NNC(=O)c1cccc([N+](=O)[O-])c1)c1ccc(-n2cccc2)cc1 | 25 (≈ 71.4 µM) | 50 (≈ 143 µM) | – | – | 25 (≈ 71.4 µM)
O=C(NNC(=O)c1ccc(-n2cccc2)cc1)c1ccc(Cl)cc1 | 3.12 (≈ 9.2 µM) | 6.25 (≈ 18.4 µM) | 36 | 4.40 | 3.12 (≈ 9.2 µM)
O=C(NNC(=O)c1ccc(-n2cccc2)cc1)c1ccc(Br)cc1 | 3.12 (≈ 8.13 µM) | 6.25 (≈ 16.3 µM) | 38 | 4.40 | 3.12 (≈ 8.13 µM)
O=C(NNC(=O)c1ccccc1Br)c1ccc(-n2cccc2)cc1 | 3.12 (≈ 8.13 µM) | 6.25 (≈ 16.3 µM) | – | – | 3.12 (≈ 8.13 µM)
O=C(NNC(=O)c1ccc(-n2cccc2)cc1)c1ccc(O)cc1 | 12.5 (≈ 38.9 µM) | 25 (≈ 77.8 µM) | 29 | 4.02 | 12.5 (≈ 38.9 µM)
O=C(NNC(=O)c1ccc(-n2cccc2)cc1)c1ccc(F)cc1 | 6.25 (≈ 19.3 µM) | 6.25 (≈ 19.3 µM) | 35 | 3.71 | 3.12 (≈ 9.67 µM)
O=C(NNC(=O)c1ccccc1Cl)c1ccc(-n2cccc2)cc1 | 3.12 (≈ 9.2 µM) | 12.5 (≈ 36.8 µM) | – | – | 6.25 (≈ 18.4 µM)
